Laboratory results published in ChEMBL document CHEMBL1201862, “PubChem BioAssay data set” (2004).
Activity calls are given as the source filed them.

Columns and labels:
Insulin-degrading enzyme [1] = molecular target: T1, Insulin-degrading enzyme (Homo sapiens, UniProt P14735); experiment: cellular IDE activation of Abeta substrate cleavage – fluorescence polarization, HEK cells, dose response (AID 588439); assay type: functional, cell-based
T1 sequence (P14735 whole entry): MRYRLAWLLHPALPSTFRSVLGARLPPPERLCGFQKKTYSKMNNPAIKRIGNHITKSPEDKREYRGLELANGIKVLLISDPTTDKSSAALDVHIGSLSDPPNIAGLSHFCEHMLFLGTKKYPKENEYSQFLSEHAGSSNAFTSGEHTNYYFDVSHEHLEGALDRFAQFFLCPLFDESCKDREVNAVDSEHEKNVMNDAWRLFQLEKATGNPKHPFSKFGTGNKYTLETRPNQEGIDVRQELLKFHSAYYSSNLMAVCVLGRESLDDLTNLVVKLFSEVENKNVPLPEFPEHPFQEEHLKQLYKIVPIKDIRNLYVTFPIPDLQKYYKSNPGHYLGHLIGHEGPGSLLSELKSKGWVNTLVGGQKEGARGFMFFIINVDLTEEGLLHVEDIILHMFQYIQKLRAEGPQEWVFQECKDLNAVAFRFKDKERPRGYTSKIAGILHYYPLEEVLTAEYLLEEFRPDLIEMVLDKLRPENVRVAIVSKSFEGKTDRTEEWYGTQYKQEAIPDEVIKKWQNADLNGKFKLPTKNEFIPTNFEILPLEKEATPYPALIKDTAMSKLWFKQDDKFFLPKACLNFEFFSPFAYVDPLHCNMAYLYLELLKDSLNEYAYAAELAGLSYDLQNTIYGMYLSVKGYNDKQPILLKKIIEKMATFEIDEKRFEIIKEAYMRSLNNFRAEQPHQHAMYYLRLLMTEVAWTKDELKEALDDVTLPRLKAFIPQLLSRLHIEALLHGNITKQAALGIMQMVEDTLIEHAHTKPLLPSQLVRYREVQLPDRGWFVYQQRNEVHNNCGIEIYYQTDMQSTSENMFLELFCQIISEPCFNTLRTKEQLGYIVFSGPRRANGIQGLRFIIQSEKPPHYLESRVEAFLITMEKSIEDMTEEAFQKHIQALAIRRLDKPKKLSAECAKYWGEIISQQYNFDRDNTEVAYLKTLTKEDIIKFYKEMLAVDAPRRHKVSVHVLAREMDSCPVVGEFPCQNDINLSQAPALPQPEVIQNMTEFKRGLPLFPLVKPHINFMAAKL

[2] = molecular target: T2, Rac GTPase-activating protein 1 (Homo sapiens, UniProt Q9H0H5); experiment: blockers of MgcRacGAP-driven Rac1 GTP hydrolysis – biochemical, ADP Hunter fluorescence, primary and confirmatory, confirmation (AID 624330); assay type: functional
T2 sequence (Q9H0H5 whole entry): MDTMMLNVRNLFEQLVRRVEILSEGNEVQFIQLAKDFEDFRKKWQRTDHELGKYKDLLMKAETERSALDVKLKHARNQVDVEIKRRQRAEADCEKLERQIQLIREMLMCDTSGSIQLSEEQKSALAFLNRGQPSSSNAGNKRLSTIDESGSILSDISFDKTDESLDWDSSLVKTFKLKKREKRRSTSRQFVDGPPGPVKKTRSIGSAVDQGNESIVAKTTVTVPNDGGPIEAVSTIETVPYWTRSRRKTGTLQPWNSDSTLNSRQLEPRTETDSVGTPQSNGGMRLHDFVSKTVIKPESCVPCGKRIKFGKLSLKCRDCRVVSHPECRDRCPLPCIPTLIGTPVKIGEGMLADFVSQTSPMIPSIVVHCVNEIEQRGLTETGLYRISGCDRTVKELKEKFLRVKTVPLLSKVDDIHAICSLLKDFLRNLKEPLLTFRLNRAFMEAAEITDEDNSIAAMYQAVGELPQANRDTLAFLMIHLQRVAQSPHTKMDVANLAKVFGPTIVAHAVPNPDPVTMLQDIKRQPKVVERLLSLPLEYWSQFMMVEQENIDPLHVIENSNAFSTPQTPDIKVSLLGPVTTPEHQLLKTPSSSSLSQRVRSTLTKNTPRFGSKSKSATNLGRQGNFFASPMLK

cells = assay type: functional
Insulin-degrading enzyme [3] = molecular target: T1, Insulin-degrading enzyme; experiment: recombinant IDE activation, cell-free – biochemical, fluorescence polarization, counter-screen for IDE activator project, dose response (AID 588681)
Large T antigen = Large T antigen (Simian virus 40, UniProt P03070); assay type: functional, Betapolyomavirus macacae;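 further: Confirmatory-stage PubChem screen for compounds that inhibit SV40 T antigen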
HEK293 [4] = experiment: membrane integrity loss in HEK cells – cell-based, fluorescence, cytotoxicity control for IDE activator project, dose response (AID 588440); assay type: functional; settings: Homo sapiens;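 further: cytotoxicity by LDH release measuring loss of membrane integrity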
HEK293 [5] = experiment: optical interference in Abeta FP readout, dose response, artefact control for IDE activator project, biochemical, fluorescence polarization (AID 588442); assay type: functional, cell-based; settings: Homo sapiens
[6] = molecular target: Disintegrin and metalloproteinase domain-containing protein 17 (Homo sapiens, UniProt P78536); experiment: inhibition of ADAM17 substrate cleavage – biochemical, quenched FRET substrate, counter-screen for ADAM10 exosite inhibitor project, dose response (AID 743253)
Streptococcus = experiment: GAS UMAA2166 growth inhibition – luminescence, BacTiterGlo, counter-screen for streptokinase expression inhibitor project, dose response (AID 1915); assay type: functional, organism-based;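 further: potency for reduction of bacterial viability or growth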
[7] = molecular target: G-protein coupled receptor 55 (Homo sapiens, UniProt Q9Y2T6); experiment: selective activators of receptor GPR55 – imaging, U2OS cells, beta-arrestin-GFP redistribution, primary screen (AID 1961); assay type: functional
[8] = system: Streptococcus sp. 'group A'; experiment: Streptococcus pyogenes SK(-)GAS viability under kanamycin – luminescence, BacTiterGlo, confirmation, counter-screen for streptokinase expression inhibitor project, dose response (AID 1900); assay type: functional, organism-based
[9] = Luminescence Cell-Based Dose Retest to Confirm Inhibitors of Cancer Stem Cells. [Related pubchem assays (depositor defined):AID2717, AID2721]; assay type: functional; settings: Homo sapiens
Streptokinase A = molecular target: T3, Streptokinase A (Streptococcus pyogenes serotype M1, UniProt P10520); experiment: viability-normalized secreted streptokinase activity reduction – plasminogen activation absorbance, OD405, dose response (AID 1914); assay type: functional, Streptococcus pyogenes M1 GAS;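 further: secreted streptokinase activity via plasminogen activation per viability signal from cell pellet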
T3 sequence (P10520 whole entry): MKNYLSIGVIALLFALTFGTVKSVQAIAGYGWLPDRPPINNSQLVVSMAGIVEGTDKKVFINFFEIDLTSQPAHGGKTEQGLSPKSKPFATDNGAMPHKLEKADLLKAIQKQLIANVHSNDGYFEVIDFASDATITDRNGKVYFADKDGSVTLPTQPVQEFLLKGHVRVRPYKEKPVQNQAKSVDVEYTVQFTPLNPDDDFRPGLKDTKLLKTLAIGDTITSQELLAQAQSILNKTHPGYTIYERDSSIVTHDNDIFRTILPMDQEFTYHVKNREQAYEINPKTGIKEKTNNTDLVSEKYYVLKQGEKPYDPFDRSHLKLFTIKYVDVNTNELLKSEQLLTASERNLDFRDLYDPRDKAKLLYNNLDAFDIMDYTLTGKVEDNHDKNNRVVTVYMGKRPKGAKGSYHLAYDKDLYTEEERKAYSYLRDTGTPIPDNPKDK

[10] = molecular target: T4, High affinity choline transporter 1 (Homo sapiens, UniProt Q9GZV3); experiment: human choline transporter blockers, potency – cell-based, 10-point CRC, membrane potential dye, dose response (AID 588401); assay type: functional;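 further: membrane potential dye fluorescence of choline-evoked depolarization via CHT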
T4 sequence (Q9GZV3 whole entry): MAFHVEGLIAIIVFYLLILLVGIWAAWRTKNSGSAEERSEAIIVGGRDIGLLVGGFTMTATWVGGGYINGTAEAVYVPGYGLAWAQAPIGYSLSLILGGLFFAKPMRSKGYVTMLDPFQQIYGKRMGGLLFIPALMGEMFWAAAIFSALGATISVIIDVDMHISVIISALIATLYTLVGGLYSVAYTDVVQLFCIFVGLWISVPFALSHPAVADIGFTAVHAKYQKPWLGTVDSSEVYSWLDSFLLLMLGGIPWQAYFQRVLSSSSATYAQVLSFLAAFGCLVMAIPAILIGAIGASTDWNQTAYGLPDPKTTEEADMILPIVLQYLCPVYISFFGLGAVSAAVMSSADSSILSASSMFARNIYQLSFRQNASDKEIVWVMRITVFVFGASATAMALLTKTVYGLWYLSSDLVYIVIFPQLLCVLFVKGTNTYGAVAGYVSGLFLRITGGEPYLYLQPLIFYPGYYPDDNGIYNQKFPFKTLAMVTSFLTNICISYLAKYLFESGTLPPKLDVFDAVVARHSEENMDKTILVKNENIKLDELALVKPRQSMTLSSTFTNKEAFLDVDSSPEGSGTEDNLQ

[11] = molecular target: T4, High affinity choline transporter 1; experiment: human choline transporter blockers, potency – cell-based, 5-point CRC, membrane potential dye, dose response (AID 504840); assay type: functional
[12] = molecular target: Mitogen-activated protein kinase 10 (Homo sapiens, UniProt P53779); experiment: Dose response biochemical screening assay for inhibitors of c-Jun N-Terminal Kinase 3 (JNK3). [Related pubchem assays: 746 ]
Cytochrome P450 2C9 = Cytochrome P450 2C9 (Homo sapiens, UniProt P11712)
[13] = molecular target: Ras and Rab interactor 1/Tyrosine-protein kinase ABL1 (Homo sapiens, UniProt P00519+Q13671); assay type: functional;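 further: biochemical TR-FRET dose-response test measuring inhibition of binding between Rin1 and Abl proteins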
Cytochrome P450 3A4 = Cytochrome P450 3A4 (Homo sapiens, UniProt P08684);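 further: CYP3A4 tested as one member of a cytochrome P450 panel screen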
Cytochrome P450 2D6 = Cytochrome P450 2D6 (Homo sapiens, UniProt P10635);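 further: CYP2D6 member of a cytochrome P450 panel assay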
Cytochrome P450 2D6, sequence (P10635 whole entry): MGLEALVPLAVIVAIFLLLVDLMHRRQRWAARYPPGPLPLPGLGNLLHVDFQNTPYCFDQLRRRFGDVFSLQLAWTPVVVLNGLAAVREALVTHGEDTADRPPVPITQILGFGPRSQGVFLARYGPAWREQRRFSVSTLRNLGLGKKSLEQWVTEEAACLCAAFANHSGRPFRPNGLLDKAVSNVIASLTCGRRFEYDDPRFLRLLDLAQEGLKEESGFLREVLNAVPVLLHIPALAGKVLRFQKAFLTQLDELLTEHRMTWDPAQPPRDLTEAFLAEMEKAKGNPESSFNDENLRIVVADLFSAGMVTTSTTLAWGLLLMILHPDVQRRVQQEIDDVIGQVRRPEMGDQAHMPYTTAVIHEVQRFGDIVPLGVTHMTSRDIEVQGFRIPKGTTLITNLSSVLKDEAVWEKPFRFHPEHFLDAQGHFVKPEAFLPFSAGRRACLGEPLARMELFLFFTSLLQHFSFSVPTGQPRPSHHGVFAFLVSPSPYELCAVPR

Mitogen-activated protein kinase 10, sequence (P53779 whole entry): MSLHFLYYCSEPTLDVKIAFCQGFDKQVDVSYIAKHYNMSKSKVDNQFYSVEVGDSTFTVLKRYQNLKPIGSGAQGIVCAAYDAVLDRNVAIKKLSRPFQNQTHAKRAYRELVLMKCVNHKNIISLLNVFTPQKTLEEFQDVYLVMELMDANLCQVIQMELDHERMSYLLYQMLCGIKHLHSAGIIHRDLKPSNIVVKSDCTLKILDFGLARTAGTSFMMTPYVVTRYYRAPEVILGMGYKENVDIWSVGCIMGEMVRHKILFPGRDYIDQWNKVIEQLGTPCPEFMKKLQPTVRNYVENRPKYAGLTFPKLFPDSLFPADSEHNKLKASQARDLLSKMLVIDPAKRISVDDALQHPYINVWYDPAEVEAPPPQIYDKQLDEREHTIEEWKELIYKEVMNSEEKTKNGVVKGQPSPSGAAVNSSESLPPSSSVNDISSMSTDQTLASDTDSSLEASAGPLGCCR
G-protein coupled receptor 55, sequence (Q9Y2T6 whole entry): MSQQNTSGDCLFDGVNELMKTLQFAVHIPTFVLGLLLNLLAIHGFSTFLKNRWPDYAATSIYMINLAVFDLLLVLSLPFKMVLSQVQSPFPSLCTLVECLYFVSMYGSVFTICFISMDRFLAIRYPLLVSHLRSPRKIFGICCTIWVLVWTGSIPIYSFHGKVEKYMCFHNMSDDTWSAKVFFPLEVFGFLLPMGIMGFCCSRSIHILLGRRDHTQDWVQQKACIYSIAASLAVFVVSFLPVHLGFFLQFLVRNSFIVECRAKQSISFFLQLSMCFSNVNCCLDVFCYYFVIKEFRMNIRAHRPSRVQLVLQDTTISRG
Cytochrome P450 3A4, sequence (P08684 whole entry): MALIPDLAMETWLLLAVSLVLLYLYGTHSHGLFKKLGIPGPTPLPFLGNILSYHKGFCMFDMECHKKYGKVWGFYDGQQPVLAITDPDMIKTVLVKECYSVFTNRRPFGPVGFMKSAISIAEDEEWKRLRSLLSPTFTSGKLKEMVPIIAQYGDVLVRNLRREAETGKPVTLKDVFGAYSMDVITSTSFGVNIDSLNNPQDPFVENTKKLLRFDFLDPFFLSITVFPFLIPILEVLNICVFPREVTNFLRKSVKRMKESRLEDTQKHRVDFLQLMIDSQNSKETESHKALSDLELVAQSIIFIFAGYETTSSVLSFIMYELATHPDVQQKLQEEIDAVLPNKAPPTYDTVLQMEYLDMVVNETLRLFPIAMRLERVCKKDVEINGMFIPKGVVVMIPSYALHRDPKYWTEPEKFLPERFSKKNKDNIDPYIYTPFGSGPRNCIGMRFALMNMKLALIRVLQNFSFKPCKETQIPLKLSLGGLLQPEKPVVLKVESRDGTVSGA
Ras and Rab interactor 1/Tyrosine-protein kinase ABL1, sequence (P00519 whole entry): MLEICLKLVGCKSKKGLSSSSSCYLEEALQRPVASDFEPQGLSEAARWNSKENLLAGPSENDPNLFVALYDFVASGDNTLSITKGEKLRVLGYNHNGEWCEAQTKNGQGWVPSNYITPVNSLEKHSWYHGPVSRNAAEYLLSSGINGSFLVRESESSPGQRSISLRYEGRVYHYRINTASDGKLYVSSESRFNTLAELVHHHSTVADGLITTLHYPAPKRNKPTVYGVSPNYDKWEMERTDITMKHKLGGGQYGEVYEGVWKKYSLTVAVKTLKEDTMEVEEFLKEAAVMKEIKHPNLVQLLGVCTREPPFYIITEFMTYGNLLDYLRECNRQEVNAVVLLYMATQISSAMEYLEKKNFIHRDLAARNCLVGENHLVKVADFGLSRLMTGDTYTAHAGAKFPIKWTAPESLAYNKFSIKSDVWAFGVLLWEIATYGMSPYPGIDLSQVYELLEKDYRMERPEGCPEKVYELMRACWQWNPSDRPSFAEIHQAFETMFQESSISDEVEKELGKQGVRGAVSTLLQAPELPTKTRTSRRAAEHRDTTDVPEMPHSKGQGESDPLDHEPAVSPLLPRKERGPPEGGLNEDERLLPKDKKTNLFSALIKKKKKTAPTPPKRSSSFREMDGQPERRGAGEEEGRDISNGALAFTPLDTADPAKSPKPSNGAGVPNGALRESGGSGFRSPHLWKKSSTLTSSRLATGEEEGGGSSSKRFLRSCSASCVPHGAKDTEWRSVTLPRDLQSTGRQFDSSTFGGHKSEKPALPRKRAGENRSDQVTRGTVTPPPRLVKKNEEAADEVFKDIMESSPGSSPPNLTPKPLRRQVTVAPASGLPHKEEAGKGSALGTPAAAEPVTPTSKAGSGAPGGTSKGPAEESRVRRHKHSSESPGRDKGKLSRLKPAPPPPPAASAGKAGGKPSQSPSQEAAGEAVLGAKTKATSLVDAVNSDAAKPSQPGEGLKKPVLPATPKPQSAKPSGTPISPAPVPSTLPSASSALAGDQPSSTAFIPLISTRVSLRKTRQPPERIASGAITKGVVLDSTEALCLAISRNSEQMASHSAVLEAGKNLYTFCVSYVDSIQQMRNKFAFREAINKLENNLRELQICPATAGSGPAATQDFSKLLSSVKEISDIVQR
Ras and Rab interactor 1/Tyrosine-protein kinase ABL1, sequence (Q13671 whole entry): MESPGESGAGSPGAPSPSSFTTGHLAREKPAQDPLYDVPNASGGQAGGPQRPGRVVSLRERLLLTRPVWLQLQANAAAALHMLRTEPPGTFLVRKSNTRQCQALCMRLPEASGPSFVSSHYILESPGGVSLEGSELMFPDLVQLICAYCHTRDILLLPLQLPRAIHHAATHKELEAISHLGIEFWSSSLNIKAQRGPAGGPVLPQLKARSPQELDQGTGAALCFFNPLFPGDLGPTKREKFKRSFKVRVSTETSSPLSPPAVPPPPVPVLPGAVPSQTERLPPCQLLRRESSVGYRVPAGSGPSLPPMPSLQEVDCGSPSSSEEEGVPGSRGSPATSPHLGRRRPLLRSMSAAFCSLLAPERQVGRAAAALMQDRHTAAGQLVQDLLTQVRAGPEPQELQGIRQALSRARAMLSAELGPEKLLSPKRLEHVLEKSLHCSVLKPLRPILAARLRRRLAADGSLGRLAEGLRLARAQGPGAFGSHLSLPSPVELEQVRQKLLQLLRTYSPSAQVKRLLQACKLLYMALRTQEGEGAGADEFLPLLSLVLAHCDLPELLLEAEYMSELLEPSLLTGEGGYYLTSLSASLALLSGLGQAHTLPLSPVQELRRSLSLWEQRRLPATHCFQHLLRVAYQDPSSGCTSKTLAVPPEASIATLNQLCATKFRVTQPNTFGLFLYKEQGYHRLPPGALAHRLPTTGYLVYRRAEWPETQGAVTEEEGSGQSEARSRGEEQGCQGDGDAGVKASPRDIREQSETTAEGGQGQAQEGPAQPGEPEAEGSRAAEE
Cytochrome P450 2C9, sequence (P11712 whole entry): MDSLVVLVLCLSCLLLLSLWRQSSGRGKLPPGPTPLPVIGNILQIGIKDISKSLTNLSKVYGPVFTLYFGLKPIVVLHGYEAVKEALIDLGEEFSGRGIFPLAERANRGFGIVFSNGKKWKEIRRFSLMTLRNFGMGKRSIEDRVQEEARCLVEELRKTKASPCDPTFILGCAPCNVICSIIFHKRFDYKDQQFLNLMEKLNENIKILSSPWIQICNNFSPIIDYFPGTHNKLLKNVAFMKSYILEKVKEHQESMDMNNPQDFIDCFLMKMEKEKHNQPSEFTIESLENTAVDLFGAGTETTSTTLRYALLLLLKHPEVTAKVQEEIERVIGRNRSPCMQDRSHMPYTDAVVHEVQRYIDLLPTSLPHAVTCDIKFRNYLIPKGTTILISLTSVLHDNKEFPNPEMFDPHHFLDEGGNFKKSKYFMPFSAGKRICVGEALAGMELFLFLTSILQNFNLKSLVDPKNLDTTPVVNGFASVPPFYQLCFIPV
Large T antigen, sequence (P03070 whole entry): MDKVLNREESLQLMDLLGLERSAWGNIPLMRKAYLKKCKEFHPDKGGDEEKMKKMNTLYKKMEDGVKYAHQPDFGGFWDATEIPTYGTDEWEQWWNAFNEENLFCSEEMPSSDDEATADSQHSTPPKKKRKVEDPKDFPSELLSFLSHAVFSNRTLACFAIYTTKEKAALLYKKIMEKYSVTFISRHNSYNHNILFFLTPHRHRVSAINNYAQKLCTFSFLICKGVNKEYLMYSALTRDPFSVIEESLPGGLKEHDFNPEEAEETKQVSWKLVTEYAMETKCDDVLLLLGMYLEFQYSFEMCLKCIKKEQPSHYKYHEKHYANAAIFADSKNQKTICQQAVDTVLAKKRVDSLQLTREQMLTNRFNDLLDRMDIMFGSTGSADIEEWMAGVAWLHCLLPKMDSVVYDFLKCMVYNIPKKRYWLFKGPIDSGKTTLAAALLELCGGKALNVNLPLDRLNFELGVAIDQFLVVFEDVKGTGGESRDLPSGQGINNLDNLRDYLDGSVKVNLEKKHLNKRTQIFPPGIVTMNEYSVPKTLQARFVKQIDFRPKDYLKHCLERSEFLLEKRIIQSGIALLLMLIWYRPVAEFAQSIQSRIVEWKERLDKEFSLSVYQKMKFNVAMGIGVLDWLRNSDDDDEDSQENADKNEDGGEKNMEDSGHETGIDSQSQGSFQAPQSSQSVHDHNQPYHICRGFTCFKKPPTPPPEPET

With `C/C(CC(=O)Nc1ccc(N(C)C)cc1)=N\NC(=O)c1ccncc1` the EC50 (Insulin-degrading enzyme [1]) was > 54.7 µM (inactive), the IC50 [2] was 56.8 µM (active) and the IC50 (cells) was 0.31 µM (active). The EC50 (Insulin-degrading enzyme [3]) was 26 µM (inactive), the IC50 (Large T antigen) was 13.7 µM (active) and the IC50 (HEK293 [4]) was > 89.2 µM (inactive). For the same molecule, the EC50 (HEK293 [5]) was > 55.9 µM (inactive).

With `C=C(C)COc1ccc(-c2n[nH]cc2Oc2ccc(OC)cc2)c(O)c1` the IC50 [6] was 12 µM (inactive), the EC50 (Insulin-degrading enzyme [1]) was 20.7 µM (inactive) and the EC50 (Streptococcus) was 25.8 µM (active). For the same molecule, the EC50 [7] was > 32 µM (inactive), the EC50 [8] was 6.87 µM (active) and the AC50 [9] was 5.47 µM (active). For the same molecule, the EC50 (Insulin-degrading enzyme [3]) was > 54.7 µM (inactive), the IC50 (HEK293 [4]) was 31.4 µM (inactive) and the EC50 (Streptokinase A) was 37.4 µM (active). The EC50 (HEK293 [5]) was > 54.7 µM (inactive).

With `Cc1cc(NS(=O)(=O)c2ccc(NC(=O)C(C)Oc3cccc(C)c3C)cc2)nc(C)n1` (stereo unspecified) the IC50 [10] was 7.23 µM (active) and the IC50 [11] was 10 µM (active).

For `O=C(Nc1cccnc1)c1ccc(COc2ccccc2Br)o1`, the IC50 [10] was 1.5 µM (active), the IC50 [12] was > 93.1 µM (not active) and the IC50 [11] was 3.28 µM (active).

For `COCCNC(=O)c1cc2c3ccccc3n(C)c2s1`, the AC50 (Cytochrome P450 2C9) was “inconclusive”, the IC50 [13] was 14.6 µM (inactive) and the AC50 (Cytochrome P450 3A4) was 28.2 µM (inconclusive). For the same molecule, the AC50 (Cytochrome P450 2D6) was “inconclusive”.
